Entries after “also recorded” stand apart in the source; their conditions may differ.
These molecules were tested against T1, human Nav1.1 (Homo sapiens, UniProt P35498) (assay: Amplification of Nav1.1-derived voltage-gated sodium current (Nav1.1 current), automated patch clamp (Test 1)). Conditions: Concentration for evaluation 1 μM; HEK293 cell line stably expressing human Nav1.1.
T1 construct: host or cells: HEK293
Assay type: cell-based
Method in brief: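 Compound-induced change in ramp-evoked sodium current peak and AUC was expressed as 100×post/pre ratio minus 100. Recordings used automated patch clamp in voltage-clamp mode on a stable human Nav1.1 HEK293 line, including only cells above 500 pA. Compounds were delivered in extracellular fluid containing 1% DMSO.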

Structure (SMILES)	Nav1.1 current amplification rate (%)
CN(CC1CCC1)c1cnc2cnn(CC(=O)Nc3ccn4ncnc4c3)c2n1 [Example 625]	255
CC1CC=C(c2ccc(=O)n(CC(=O)N3CCc4c(CN(C)C5COC5)cccc43)n2)CC1 (centres unmarked) [Example 276]	207
CN(c1cnc2cnn(CC(=O)N3CCc4c(CN5CC=CC5)cccc43)c2n1)C1CC1 [Example 720]	230
CN(CC1(F)CC1)c1cnc2cnn(CC(=O)Nc3ccn4ncnc4c3)c2n1 [Example 640]	38
CN(c1cnc2cnn(CC(=O)Nc3ccn4ncnc4c3)c2n1)C1CC1(C)C (centres unmarked) [Example 631]	49
O=C(Cn1nc(C2=CCCCC2)ccc1=O)N1CCc2c(N3CCOCC3)cccc21 [Example 480]	110
CC1CC=C(c2ccc(=O)n(CC(=O)N3CCc4c(Cn5cncn5)cccc43)n2)CC1 (centres unmarked) [Example 294]	271
O=C(Cn1ncc2cnc(N3CCC4(CCC4)CC3)nc21)Nc1ccn2ncnc2c1 [Example 766]	41
CN(c1ncc2cnn(CC(=O)Nc3ccc4ncnn4c3)c2n1)C1CC(C)(C)C1 [Example 668]	72
CO[C@H]1CCN(Cc2cccc3c2CCN3C(=O)Cn2nc(C3=CCC(C)CC3)ccc2=O)C1 (some centres unmarked) [Example 272]	127
CC1CC=C(c2ccc(=O)n(CC(=O)N3CCc4c(CNCC(F)F)cccc43)n2)CC1 (centres unmarked) [Example 312]	80

The remaining lines, values ahead:

Nav1.1 current amplification rate (%)	Structure (SMILES)
95	CC1CC=C(c2ccc(=O)n(CC(=O)N3CCc4c3ccc(F)c4-c3ccnnc3)n2)CC1 (centres unmarked) [Example 295]
51	CC1CC=C(c2ccc(=O)n(CC(=O)N3CCc4cc(-c5cccnc5)ccc43)n2)CC1 (centres unmarked) [Example 298]
155	Cc1cc(NC(=O)Cn2nc(C3=CCC(C)CC3)ccc2=O)cc2ncnn12 (centres unmarked) [Example 352]
173	CC1CC=C(c2cnc3cnn(CC(=O)Nc4ccc5ncnn5c4)c3n2)CC1 (centres unmarked) [Example 653]

Same assay, conditions: Concentration for evaluation 3 μM; HEK293 cell line stably expressing human Nav1.1

Nav1.1 current amplification rate (%)	Structure (SMILES)
582	CC1(C)CC=C(c2ccc(=O)n(CC(=O)N3CCc4c(C5CN(C(=O)CO)C5)cccc43)n2)CC1 [Example 437]
50	CC1CC=C(c2ccc(=O)n(CC(=O)Nc3ccc4oc(CN(C)C)nc4c3)n2)CC1 (centres unmarked) [Example 324]
584	COc1ncc(-c2cccc3c2CCN3C(=O)Cn2nc(C3=CCC(C)CC3)ccc2=O)cn1 (centres unmarked) [Example 249]

Same assay, conditions: Concentration for evaluation 10 μM; HEK293 cell line stably expressing human Nav1.1

Nav1.1 current amplification rate (%)	Structure (SMILES)
49	CC1CCN(c2ccc(=O)n(CC(=O)Nc3ccnc(N4CCOCC4)c3)n2)CC1 [Example 66]
241	Cc1noc2cc(NC(=O)Cn3nc(C4=CCC(C)CC4)ccc3=O)ccc12 (centres unmarked) [Example 240]
10	Cc1ccc(-c2ccc(=O)n(CC(=O)Nc3ccc4ocnc4c3)n2)cn1 [Example 452]
220	N#Cc1ccc(NC(=O)Cn2nc(N3CCCC4(CCC4)C3)ccc2=O)cc1 [Example 33]
31	CC1CCN(c2ccc(=O)n(CC(=O)Nc3ccc4nccn4c3)n2)CC1 [Example 90]
186	CC1(C)CC=C(c2ccc(=O)n(CC(=O)Nc3ccn4ccnc4c3)n2)C1 [Example 465]
212	N#Cc1ccc(NC(=O)Cn2nc(N3CCC4(CC3)CC4)ccc2=O)cc1 [Example 17]
77	CC1CCN(c2ccc(=O)n(CC(=O)Nc3cncc(C(F)(F)F)c3)n2)CC1 [Example 61]
3	N#Cc1ccc(NC(=O)Cn2nc(N3CCCC(O)C3)ccc2=O)cc1 (centres unmarked) [Example 7]
276	CC1CC=C(c2ccc(=O)n(CC(=O)Nc3ccc4oc(C(F)F)nc4c3)n2)CC1 (centres unmarked) [Example 243]

Same assay, conditions: Concentration for evaluation 50 μM; HEK293 cell line stably expressing human Nav1.1

Nav1.1 current amplification rate (%)	Structure (SMILES)
18	CC1CC=C(c2ccc(=O)n(CC(=O)N3CCN(C4CCOCC4)CC3)n2)CC1 (centres unmarked) [Example 411]

Same assay, conditions: HEK293, Concentration for evaluation 1 μM; HEK293 cell line stably expressing human Nav1.1; read-out: Nav1.1 current amplification rate (%)

activation at 1 µM [%]	Structure (SMILES)
84	O=C(Cn1ncc2ncc(N3CCC4(CC4)C(F)(F)C3)nc21)Nc1ccn2ncnc2c1 [Example 609, 2-[6-(4,4-difluoro-6-azaspiro[2.5]octan-6-yl)-1H-pyrazolo[3,4-b]pyrazin-1-yl]-N-([1,2,4]triazolo[1,5-a]pyridin-7-yl)acetamide]
78	CN(c1cnc2cnn(CC(=O)Nc3ccn4ncnc4c3)c2n1)C1CCCC1 [Example 593, 2-{6-[cyclopentyl(methyl)amino]-1H-pyrazolo[3,4-b]pyrazin-1-yl}-N-([1,2,4]triazolo[1,5-a]pyridin-7-yl)acetamide]
17	CN(CC1CC1)c1cnc2cnn(CC(=O)Nc3ccc(C#N)nc3)c2n1 [Example 748]
61	CN(c1cnc2cnn(CC(=O)Nc3ccc4ncncc4c3)c2n1)C1CC(C)(C)C1 [Example 758]
32	Cc1ccc(-c2cnc3cnn(CC(=O)N4CCN(c5cccnc5)CC4)c3n2)c(F)c1 [Example 742]
104	CN(CC1(C)CC1)c1cnc2cnn(CC(=O)Nc3cnc4cccnc4c3)c2n1 [Example 760]

Same assay, conditions: HEK293, concentration for evaluation 1 μM; HEK293 stably expressing human Nav1.1; read-out: Nav1.1 current amplification rate (%)

activation at 1 µM [%]	Structure (SMILES)
81	CN(c1ccc2cnn(CC(=O)Nc3cnc4cccnc4c3)c2n1)C1CCCC1 [Example 891]
151	CN(CC1CCC1)c1ccc2cnn(CC(=O)Nc3cnc4cccnc4c3)c2n1 [Example 889]
87	CN(c1ncc2cnn(CC(=O)Nc3cnc4cccnc4c3)c2n1)C1CC2(CC2)C1 [Example 842]

Same assay, conditions: HEK293, concentration for evaluation 10 μM; HEK293 stably expressing human Nav1.1; read-out: Nav1.1 current amplification rate (%)

activation at 10 µM [%]	Structure (SMILES)
31	CC1CC=C(c2ccc3cnn(CC(=O)N4CCN(c5cccnc5)CC4)c3c2)CC1 (centres unmarked) [Example 893]

Same assay, conditions: HEK293, concentration for evaluation 50 μM; HEK293 stably expressing human Nav1.1; read-out: Nav1.1 current amplification rate (%)

activation at 50 µM [%]	Structure (SMILES)
118	CC1CCN(c2ncc3cnn(CC(=O)N4CCN(c5cccnc5)CC4)c3n2)CC1 [Example 835]

Same assay, conditions: concentration for evaluation 1 μM; HEK293 stably expressing human Nav1.1

Nav1.1 current amplification rate (%)	Structure (SMILES)
111	CN(c1ncc2cnn(CC(=O)Nc3ccn4ncnc4c3)c2n1)C1CC2(CC2)C1 [Example 802]
42	CC1CCN(c2ccc3cnn(CC(=O)Nc4ccc5cnnn5c4)c3n2)CC1 [Example 878]
111	CC1CC=C(c2ccc3cnn(CC(=O)Nc4ccn5ncnc5c4)c3n2)CC1 (centres unmarked) [Example 852]
226	O=C(Cn1ncc2cnc(N3CCC4(CCC4)CC3)nc21)Nc1ccc2cncnc2c1 [Example 808]

Same assay, conditions: concentration for evaluation 10 μM; HEK293 stably expressing human Nav1.1

Nav1.1 current amplification rate (%)	Structure (SMILES)
64	CC1(C)CCN(c2ncc3cnn(CC(=O)Nc4ccc5cncnc5c4)c3n2)CC1 [Example 809]

Each molecule was assayed on APP-Tg mouse (assay: Evaluation of the cognitive function by novel object recognition test (NORT) in APP-Tg mice (Test 3)). Conditions: APP-Tg mice; Elacridar orally 100 mg/kg 2 hours before, test compound intraperitoneally 30 minutes before the first trial run.
Assay type: in vivo
Design: key to Discrimination index: (novel − known search time)/(novel + known search time)
Description: Test 3: Evaluation of the Cognitive Function by Novel Object Recognition Test (Hereinafter, Also Referred to as “NORT”)
The present test is for evaluating the improvement of cognitive function with the test compounds. When an APP-Tg mouse which is an AD (Alzheimer's disease) model mouse is evaluated by NORT, the memory for a familiar object decreases depending on the time interval between the first trial run (training) and the second trial run (test). For example, if the first trial run is done and 3 hours later the second one is done, there is no difference in the searching times between novel object and known object for the APP-Tg mouse, compared with a healthy mouse. Thus, the APP-Tg mouse suffers from significant amnesia.
The APP-Tg mouse used herein was prepared by constructing an expression cassette linked to human APP751 isoform to which Swedish (K670N/M671L) and Indiana (V717F) mutation were introduced at downstream of mouse Thy-1 promoter, then injecting the expression cassette into a mouse fertilized egg, and transplanting it to a host mouse. The prepared mouse presents with intracerebral AB accumulation and cognitive dysfunction from early on, and thus the mouse can be used for the evaluation of cognitive function. APP-Tg mouse has been also reported in Non-patent literature 6.
To the prepared APP-Tg mouse, the test compound was administered, and then the first trial run was done for the mouse 30 minutes after the intraperitoneal administration or after 10 days of mixed diet administration. The second trial run was done 3 hours after the first trial run, and the searching times between novel object and known object in the second trial were evaluated. The discrimination index was calculated from the searching time for novel object and known object in the second trial run, and the improvement of cognitive function of the test compound was confirmed by comparing the discrimination index with the test compound-unadministered group as an index of the cognitive function. The discrimination index was calculated by the following formula.
Discrimination index={(Searching time for novel object)−(Searching time for known object)}/{(Searching time for novel object)+(Searching time for known object)}
The present test can be also done with a combination with Elacridar (Tokyo Chemical Industry Co., Ltd.). Elacridar can inhibit P-gp and BCRP which are excretion transporters expressed in the blood-brain barrier and thereby Elacridar has the effect of improving the transferability of the test compound to the brain. Eracridal was orally administered to APP-Tg mice at 100 mg/kg 2 hours before the first trial run, and then the test compound was intraperitoneally administered to the mice 30 minutes before the first trial run according to the above method. And, the improvement of cognitive function was evaluated. The significant difference from the vehicle-administered group was determined using the parametric Dunnett multiple comparison test.
And, the present test can be also done with a combination with ABT (1-aminobenzotriazole) (Tokyo Chemical Industry Co., Ltd.). ABT has the effect of improving the blood concentration of the test compound by inhibiting CYP and suppressing metabolism. The test compound and ABT (1 mg/g-food) were administered with food to APP-Tg mice for 10 days, and then the improvement of cognitive function was evaluated according to the above method. The significant difference from the vehicle-administered group was determined using the parametric Dunnett multiple comparison test.

Structure (SMILES)	improvement of cognitive function (NORT)
CN(c1cnc2cnn(CC(=O)Nc3ccn4ncnc4c3)c2n1)C1CCCC1 [Example 593, 2-{6-[cyclopentyl(methyl)amino]-1H-pyrazolo[3,4-b]pyrazin-1-yl}-N-([1,2,4]triazolo[1,5-a]pyridin-7-yl)acetamide]	some improvement of cognitive function

Same assay, conditions: APP-Tg mice; Elacridar orally 100 mg/kg 2 hours before, test compound intraperitoneally 30 minutes before the first trial run; 100 mg/kg

Structure (SMILES)	improvement of cognitive function (NORT)
O=C(Cn1ncc2ncc(N3CCC4(CC4)C(F)(F)C3)nc21)Nc1ccn2ncnc2c1 [Example 609, 2-[6-(4,4-difluoro-6-azaspiro[2.5]octan-6-yl)-1H-pyrazolo[3,4-b]pyrazin-1-yl]-N-([1,2,4]triazolo[1,5-a]pyridin-7-yl)acetamide]	some improvement of cognitive function; also recorded: strong improvement of cognitive function

Same assay, conditions: APP-Tg mice; alone, with Elacridar or with ABT depending on the compound

Structure (SMILES)	improvement of cognitive function (NORT), summary of the above results
O=C(Cn1ncc2ncc(N3CCC4(CC4)C(F)(F)C3)nc21)Nc1ccn2ncnc2c1 [Example 609, 2-[6-(4,4-difluoro-6-azaspiro[2.5]octan-6-yl)-1H-pyrazolo[3,4-b]pyrazin-1-yl]-N-([1,2,4]triazolo[1,5-a]pyridin-7-yl)acetamide]	some improvement of cognitive function
CN(c1cnc2cnn(CC(=O)Nc3ccn4ncnc4c3)c2n1)C1CCCC1 [Example 593, 2-{6-[cyclopentyl(methyl)amino]-1H-pyrazolo[3,4-b]pyrazin-1-yl}-N-([1,2,4]triazolo[1,5-a]pyridin-7-yl)acetamide]	some improvement of cognitive function

Same assay, conditions: APP-Tg mouse; dose 60 (mg/g i.p.); with Elacridar 100 mg/kg orally 2 hours before first trial run

Structure (SMILES)	Discrimination index
O=C(Cn1ncc2ncc(N3CCC4(CC4)C(F)(F)C3)nc21)Nc1ccn2ncnc2c1 [Example 609, 2-[6-(4,4-difluoro-6-azaspiro[2.5]octan-6-yl)-1H-pyrazolo[3,4-b]pyrazin-1-yl]-N-([1,2,4]triazolo[1,5-a]pyridin-7-yl)acetamide]	0.29
CN(c1cnc2cnn(CC(=O)Nc3ccn4ncnc4c3)c2n1)C1CCCC1 [Example 593, 2-{6-[cyclopentyl(methyl)amino]-1H-pyrazolo[3,4-b]pyrazin-1-yl}-N-([1,2,4]triazolo[1,5-a]pyridin-7-yl)acetamide]	0.20

Same assay, conditions: APP-Tg mouse; with Elacridar 100 mg/kg orally 2 hours before first trial run

Structure (SMILES)	Discrimination index
O=C(Cn1ncc2ncc(N3CCC4(CC4)C(F)(F)C3)nc21)Nc1ccn2ncnc2c1 [Example 609, 2-[6-(4,4-difluoro-6-azaspiro[2.5]octan-6-yl)-1H-pyrazolo[3,4-b]pyrazin-1-yl]-N-([1,2,4]triazolo[1,5-a]pyridin-7-yl)acetamide]	0.29
CN(c1cnc2cnn(CC(=O)Nc3ccn4ncnc4c3)c2n1)C1CCCC1 [Example 593, 2-{6-[cyclopentyl(methyl)amino]-1H-pyrazolo[3,4-b]pyrazin-1-yl}-N-([1,2,4]triazolo[1,5-a]pyridin-7-yl)acetamide]	0.11

— patent US20230109839A1, “THERAPEUTIC AGENT FOR TAUOPATHIES” (SUMITOMO PHARMA CO., LTD., priority 2020, published 2023)
